Assay [1] deals with T1, Melatonin receptor type 1B (Homo sapiens) (UniProt P49286).
T1 sequence (whole entry): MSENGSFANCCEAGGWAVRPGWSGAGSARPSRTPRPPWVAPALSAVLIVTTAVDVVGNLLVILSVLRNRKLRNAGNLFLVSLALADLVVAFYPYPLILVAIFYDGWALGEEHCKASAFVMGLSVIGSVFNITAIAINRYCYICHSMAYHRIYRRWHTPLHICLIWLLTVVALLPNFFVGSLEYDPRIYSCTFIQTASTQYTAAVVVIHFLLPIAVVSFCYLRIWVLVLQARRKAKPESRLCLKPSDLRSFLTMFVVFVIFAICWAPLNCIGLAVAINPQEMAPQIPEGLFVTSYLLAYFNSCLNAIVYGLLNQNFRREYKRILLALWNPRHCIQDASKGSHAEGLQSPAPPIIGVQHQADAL
The assay is described as follows: Intrinsic activity at human cloned MT2 receptor expressed in […] cells by [35S]GTP-gamma-S binding assay relative to melatonin. The format is functional, cell-based. On the technique in general: Binding of GTPγS marks nucleotide exchange on a G protein.

Assay [2] concerns the target T2, Melatonin receptor type 1A (Homo sapiens, UniProt P48039). The assay is described as follows: Intrinsic activity at human cloned MT1 receptor expressed in […] cells by [35S]GTP-gamma-S binding assay relative to melatonin. Type of assay: functional, cell-based.
Assay [3] deals with T2, Melatonin receptor type 1A. The assay is described as follows: Displacement of 2-[125I]iodomelatonin from human cloned MT1 receptor expressed in […] cells. Type of assay: cell-based.
The target in assay [4] is T3, Melatonin receptor type 1B (Homo sapiens, UniProt P49286).
T3 sequence (P49286 whole entry): T1 sequence (whole entry)
Briefly: Displacement of 2-[125I]iodomelatonin from human cloned MT2 receptor expressed in […] cells. The format is cell-based.

Molecules are shown by their SMILES.

T2 sequence (P48039 whole entry): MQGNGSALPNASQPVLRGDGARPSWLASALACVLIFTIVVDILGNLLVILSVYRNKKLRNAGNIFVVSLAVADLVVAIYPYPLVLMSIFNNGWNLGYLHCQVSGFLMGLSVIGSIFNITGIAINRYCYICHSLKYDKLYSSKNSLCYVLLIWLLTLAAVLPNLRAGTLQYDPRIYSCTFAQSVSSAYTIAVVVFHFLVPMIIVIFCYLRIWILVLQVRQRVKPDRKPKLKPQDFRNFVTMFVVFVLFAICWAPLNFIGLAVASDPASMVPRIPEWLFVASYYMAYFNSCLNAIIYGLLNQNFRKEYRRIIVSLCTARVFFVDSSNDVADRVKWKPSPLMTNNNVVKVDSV

Regarding `CCCCCOC(=O)c1[nH]c2ccc(OC)cc2c1CCNC(C)=O`, the values for the Intrinsic activity in assay [1] and in assay [2] were 0.23 and 0.06, respectively. The Ki came to 70.1 nM in assay [3] and 4.8 nM in assay [4].

Take `COc1ccc2[nH]c(C(=O)OCCCCCCCCCCCCOC(=O)c3[nH]c4ccc(OC)cc4c3CCNC(C)=O)c(CCNC(C)=O)c2c1`: the results for the Intrinsic activity in assay [1] and in assay [2] were 0.64 and 0.72, respectively. Further, the Ki in assay [3] is 25.4 nM; in assay [4], 44 nM.

In the case of `COc1ccc2[nH]c(C(=O)OCCCCCCCOC(=O)c3[nH]c4ccc(OC)cc4c3CCNC(C)=O)c(CCNC(C)=O)c2c1`, the values for the Intrinsic activity in assay [1] and in assay [2] were 0.08 and 0.35, respectively. For the same compound, the Ki in assay [3] turned out to be 215 nM; in assay [4] it was 65 nM.

In the case of `COc1ccc2[nH]cc(CCNC(=O)CCCCCCCCC(=O)NCCc3c[nH]c4ccc(OC)cc34)c2c1`, the Intrinsic activity in assay [1] was determined as 0.79; in assay [2], 0.81. Moreover, the Ki in assay [3] was 387 nM; in assay [4], 573 nM.

`COc1ccc2[nH]c(C(=O)OCCCOC(=O)c3[nH]c4ccc(OC)cc4c3CCNC(C)=O)c(CCNC(C)=O)c2c1`: the Intrinsic activity was determined as 0.8 in assay [1] and 0.77 in assay [2]. The Ki turned out to be 9.5 nM in assay [3] and 14.3 nM in assay [4].

For `COc1ccc2[nH]c(C(=O)OCCCCCCCCCOC(=O)c3[nH]c4ccc(OC)cc4c3CCNC(C)=O)c(CCNC(C)=O)c2c1`, the Intrinsic activity in assay [1] is -0.17; in assay [2] it was 0.33. The values for the Ki in assay [3] and in assay [4] were 59.8 nM and 7.75 nM, respectively.

For `COc1ccc2[nH]c(C(=O)OCCCCCOC(=O)c3[nH]c4ccc(OC)cc4c3CCNC(C)=O)c(CCNC(C)=O)c2c1`, the values for the Intrinsic activity in assay [1] and in assay [2] were 0.93 and 1, respectively. Also, the Ki in assay [3] worked out at 20.1 nM; in assay [4], 62.4 nM.

In the case of `COc1ccc2[nH]c(C(=O)OCCCCCCCCOC(=O)c3[nH]c4ccc(OC)cc4c3CCNC(C)=O)c(CCNC(C)=O)c2c1`, the values for the Intrinsic activity in assay [1] and in assay [2] were 0.9 and 1, respectively. In addition, the Ki in assay [3] was found to be 7.91 nM; in assay [4], 7.92 nM.

Take `COc1ccc2[nH]c(C(=O)OCCCCCCCCCCOC(=O)c3[nH]c4ccc(OC)cc4c3CCNC(C)=O)c(CCNC(C)=O)c2c1`: the Intrinsic activity in assay [1] came out at 0.65; in assay [2], 0.79. Besides, the Ki in assay [3] was determined as 24.2 nM; in assay [4], 15.4 nM.

In the case of `COc1ccc2[nH]cc(CCNC(=O)CCCCCC(=O)NCCc3c[nH]c4ccc(OC)cc34)c2c1`, the Intrinsic activity turned out to be 0.26 in assay [1] and 0.35 in assay [2]. The Ki in assay [3] is 6470 nM; in assay [4], 7290 nM.

Consider `COc1ccc2[nH]c(C(=O)OCCCCCCCCCOC(=O)c3ccccc3)c(CCNC(C)=O)c2c1`, for which the values for the Intrinsic activity in assay [1] and in assay [2] were 0.38 and 0.75, respectively. In addition, the Ki in assay [3] was 83 nM; in assay [4], 20 nM.

For orientation: Ki means the dissociation constant of the complex between target and ligand, obtained from inhibition or displacement. A lower Ki goes with a stronger hold on the target.
